Source: patent publication US9133228B2, “Guanidinyl-substituted polyamides useful for treating human papilloma virus” (Nanovir, LLC, priority 2011, dated 2015)

Experiments:
Type in all cases: cell-based, Human papilloma virus
[1] = system: HPV16; assay: Inhibition of viral replication in cells that maintain HPV16 DNA, viral DNA quantified by real-time PCR; conditions: cells maintaining HPV16 cultured 72 hours with polyamide; vs DMSO control; highest dose tested 10 μM
Excerpt: (§1) Table 1a lists a number of exemplary polyamides synthesized in accordance with the present invention. The HPLC/MW values given in Table 1b were obtained using low resolution high pressure liquid chromatography/mass spectrometry (LR HPLC/MS), which provides moderate precision masses of single isotopomers rather than average molecular weights or exact masses. Table 2 presents a summary of measured IC50 values of certain of these polyamides against HPV16, HPV18 and HPV31. The IC50 is the concentration of compound required for 50% inhibition of viral replication in vitro. The polyamides were tested in cells that maintain HPV16, HPV18 or HPV31 DNA. Cells maintaining the selected HPV were cultured for 72 hours in the presence of the polyamide. Viral DNA was then quantified using real-time PCR and compared to vehicle (DMSO)-treated control cultures. […] Table 3 presents a summary of measured IC50 and IC90 values of certain of these polyamides against HPV16, HPV18 and HPV31.

[2] = system: HPV18; assay: Inhibition of viral replication in cells that maintain HPV18 DNA, viral DNA quantified by real-time PCR; conditions: cells maintaining HPV18 cultured 72 hours with polyamide; vs DMSO control; highest dose tested 10 μM
Excerpt: as §1

[3] = system: HPV31; assay: Inhibition of viral replication in cells that maintain HPV31 DNA, viral DNA quantified by real-time PCR; conditions: cells maintaining HPV31 cultured 72 hours with polyamide; vs DMSO control; highest dose tested 10 μM
Excerpt: as §1

SMILES	IC50 [1] [nM]	IC50 [2] [nM]	IC50 [3] [nM]
CN(CCCN)CCCNC(=O)c1cc(NC(=O)c2cc(NC(=O)CCNC(=O)c3cc(NC(=O)c4cc(NC(=O)c5cc(NC(=O)CCNC(=O)c6cc(NC(=O)c7cc(NC(=O)CCNC(=O)c8cc(NC(=O)[C@H](N)CCNC(=O)c9nc(NC(=O)c%10cc(NC(=O)CCNC(=O)c%11cc(NC(=O)c%12cc(NC(=O)CCNC(=O)c%13cc(NC(=O)c%14cc(N=C(N(C)C)N(C)C)cn%14C)cn%13C)cn%12C)cn%11C)cn%10C)cn9C)cn8C)cn7C)cn6C)cn5C)cn4C)cn3C)cn2C)cn1C [NV1071, TMG-PyPyβPyPyβPyIm-γNH2-PyβPyPyβPyPyPyβPyPy-Ta•5TFA]	255	93	95
CN(CCCN)CCCNC(=O)CCNC(=O)c1cc(NC(=O)CCNC(=O)c2cc(NC(=O)c3cc(NC(=O)c4cc(NC(=O)CCNC(=O)c5cc(NC(=O)c6cc(NC(=O)CCNC(=O)c7cc(NC(=O)[C@@H](CCNC(=O)c8nc(NC(=O)c9cc(NC(=O)CCNC(=O)c%10cc(NC(=O)c%11cc(NC(=O)CCNC(=O)c%12cc(NC(=O)c%13cc(NC(=O)c%14cc(N=C(N(C)C)N(C)C)cn%14C)cn%13C)cn%12C)cn%11C)cn%10C)cn9C)cn8C)NC(=O)NCCCN(C)CCCN)cn7C)cn6C)cn5C)cn4C)cn3C)cn2C)cn1C [NV1072, TMG-PyPyPyβPyPyβPyIm-γNHR′-PyβPyPyβPyPyPyβPyβ-Ta•6TFA]	109	216	96
CN(CCCN)CCCNC(=O)CCNC(=O)c1cc(NC(=O)CCNC(=O)c2cc(NC(=O)c3cc(NC(=O)c4cc(NC(=O)CCNC(=O)c5cc(NC(=O)c6cc(NC(=O)CCNC(=O)c7cc(NC(=O)[C@H](N)CCNC(=O)c8nc(NC(=O)c9cc(NC(=O)CCNC(=O)c%10cc(NC(=O)c%11cc(NC(=O)CCNC(=O)c%12cc(NC(=O)c%13cc(NC(=O)c%14cc(N=C(N(C)C)N(C)C)cn%14C)cn%13C)cn%12C)cn%11C)cn%10C)cn9C)cn8C)cn7C)cn6C)cn5C)cn4C)cn3C)cn2C)cn1C [NV1073, TMG-PyPyPyβPyPyβPyIm-γNH2-PyβPyPyβPyPyPyβPyβ-Ta•5TFA]	267	405	220
CN(CCCN)CCCNC(=O)CCNC(=O)c1cc(NC(=O)CCNC(=O)c2cc(NC(=O)c3cc(NC(=O)c4cc(NC(=O)CCNC(=O)c5cc(NC(=O)c6cc(NC(=O)c7cc(NC(=O)[C@@H](CCNC(=O)c8cc(NC(=O)CCNC(=O)c9cc(NC(=O)c%10cc(NC(=O)CCNC(=O)c%11cc(NC(=O)c%12cc(NC(=O)c%13cc(N=C(N(C)C)N(C)C)cn%13C)cn%12C)cn%11C)cn%10C)cn9C)cn8C)NC(=O)NCCCN(C)CCCN)cn7C)cn6C)cn5C)cn4C)cn3C)cn2C)cn1C [NV1074, TMG-PyPyPyβPyPyβPy-γNHR′-PyPyPyβPyPyPyβPyβ-Ta•5TFA]	178	41	52
CN(C)CCCNC(=O)CCNC(=O)c1cc(NC(=O)CCNC(=O)c2cc(NC(=O)c3cc(NC(=O)c4cc(NC(=O)CCNC(=O)c5cc(NC(=O)c6cc(NC(=O)CCNC(=O)c7cc(NC(=O)[C@H](N)CCNC(=O)c8nc(NC(=O)c9cc(NC(=O)CCNC(=O)c%10cc(NC(=O)c%11cc(NC(=O)CCNC(=O)c%12cc(NC(=O)c%13cc(NC(=O)c%14cc(N=C(N(C)C)N(C)C)cn%14C)cn%13C)cn%12C)cn%11C)cn%10C)cn9C)cn8C)cn7C)cn6C)cn5C)cn4C)cn3C)cn2C)cn1C [NV1075, TMG-PyPyPyβPyPyβPyIm-γNH2-PyβPyPyβPyPyPyβPyβ-Dp•4TFA]	124	49	56
CN(CCCN)CCCNC(=O)CCNC(=O)c1cc(NC(=O)CCNC(=O)c2cc(NC(=O)c3cc(NC(=O)c4cc(NC(=O)CCNC(=O)c5cc(NC(=O)c6cc(NC(=O)c7cc(NC(=O)[C@H](N)CCNC(=O)c8cc(NC(=O)CCNC(=O)c9cc(NC(=O)c%10cc(NC(=O)CCNC(=O)c%11cc(NC(=O)c%12cc(NC(=O)c%13cc(N=C(N(C)C)N(C)C)cn%13C)cn%12C)cn%11C)cn%10C)cn9C)cn8C)cn7C)cn6C)cn5C)cn4C)cn3C)cn2C)cn1C [NV1076, TMG-PyPyPyβPyPyβPy-γNH2-PyPyPyβPyPyPyβPyβ-Ta]	67	48	104
CN(C)CCCNC(=O)CCNC(=O)c1cc(NC(=O)CCNC(=O)c2cc(NC(=O)c3cc(NC(=O)c4cc(NC(=O)CCNC(=O)c5cc(NC(=O)c6cc(NC(=O)c7cc(NC(=O)[C@H](N)CCNC(=O)c8cc(NC(=O)CCNC(=O)c9cc(NC(=O)c%10cc(NC(=O)CCNC(=O)c%11cc(NC(=O)c%12cc(NC(=O)c%13cc(N=C(N(C)C)N(C)C)cn%13C)cn%12C)cn%11C)cn%10C)cn9C)cn8C)cn7C)cn6C)cn5C)cn4C)cn3C)cn2C)cn1C [NV1077, TMG-PyPyPyβPyPyβPy-γNH2-PyPyPyβPyPyPyβPyβ-Dp]	95	15	32
CN(CCCN)CCCNC(=O)CCNC(=O)c1cc(NC(=O)c2cc(NC(=O)c3cc(NC(=O)CCNC(=O)c4cc(NC(=O)c5cc(NC(=O)c6cc(NC(=O)CCNC(=O)c7cc(NC(=O)c8cc(NC(=O)CCCNC(=O)c9cc(NC(=O)c%10cc(NC(=O)CCNC(=O)c%11nc(NC(=O)c%12cc(NC(=O)c%13cc(NC(=O)CCNC(=O)c%14cc(N=C(N(C)C)N(C)C)cn%14C)cn%13C)cn%12C)cn%11C)cn%10C)cn9C)cn8C)cn7C)cn6C)cn5C)cn4C)cn3C)cn2C)cn1C [NV1078, TMG-PyβPyPyImβPyPy-γ-PyPyβPyPyPyβPyPyPyβ-Ta•4TFA]	32	27	35
CN(C)CCCNC(=O)CCNC(=O)c1cc(NC(=O)CCNC(=O)c2cc(NC(=O)c3cc(NC(=O)c4cc(NC(=O)CCNC(=O)c5cc(NC(=O)c6cc(NC(=O)c7cc(NC(=O)[C@@H](CCNC(=O)c8cc(NC(=O)CCNC(=O)c9cc(NC(=O)c%10cc(NC(=O)CCNC(=O)c%11cc(NC(=O)c%12cc(NC(=O)c%13cc(N=C(N(C)C)N(C)C)cn%13C)cn%12C)cn%11C)cn%10C)cn9C)cn8C)NC(=O)NCCCN(C)C)cn7C)cn6C)cn5C)cn4C)cn3C)cn2C)cn1C [NV1079, TMG-PyPyPyβPyPyβPy-γNHR″-PyPyPyβPyPyPyβPyβ-Dp•3TFA]	42	17	37
CN(C)CCCNC(=O)CCNC(=O)c1cc(NC(=O)c2cc(NC(=O)c3cc(NC(=O)CCNC(=O)c4cc(NC(=O)c5cc(NC(=O)c6cc(NC(=O)CCNC(=O)c7cc(NC(=O)c8cc(NC(=O)CCCNC(=O)c9cc(NC(=O)c%10cc(NC(=O)CCNC(=O)c%11nc(NC(=O)c%12cc(NC(=O)c%13cc(NC(=O)CCNC(=O)c%14cc(N=C(N(C)C)N(C)C)cn%14C)cn%13C)cn%12C)cn%11C)cn%10C)cn9C)cn8C)cn7C)cn6C)cn5C)cn4C)cn3C)cn2C)cn1C [NV1080, TMG-PyβPyPyImβPyPy-γ-PyPyβPyPyPyβPyPyPyβ-Dp•3TFA]	53	35	47
CN(C)CCCNC(=O)CCNC(=O)c1cc(NC(=O)c2cc(NC(=O)c3cc(NC(=O)c4cc(NC(=O)CCNC(=O)c5cc(NC(=O)c6cc(NC(=O)CCCNC(=O)c7cc(NC(=O)c8cc(NC(=O)c9cc(NC(=O)CCNC(=O)c%10cc(N=C(N(C)C)N(C)C)cn%10C)cn9C)cn8C)cn7C)cn6C)cn5C)cn4C)cn3C)cn2C)cn1C [NV1081, TMG-PyβPyPyPy-γ-PyPyβPyPyPyPyβ-Dp•2TFA]	> 10000	> 10000	> 10000
CN(CCCN)CCCNC(=O)CCNC(=O)c1cc(NC(=O)c2cc(NC(=O)c3cc(NC(=O)c4cc(NC(=O)CCNC(=O)c5cc(NC(=O)c6cc(NC(=O)CCCNC(=O)c7cc(NC(=O)c8cc(NC(=O)c9cc(NC(=O)CCNC(=O)c%10cc(N=C(N(C)C)N(C)C)cn%10C)cn9C)cn8C)cn7C)cn6C)cn5C)cn4C)cn3C)cn2C)cn1C [NV1082, TMG-PyβPyPyPy-γ-PyPyβPyPyPyPyβ-Ta•3TFA]	> 10000	> 10000	> 10000
CN(C)CCCNC(=O)CCNC(=O)c1cc(NC(=O)c2cc(NC(=O)c3cc(NC(=O)c4cc(NC(=O)CCNC(=O)c5cc(NC(=O)c6cc(NC(=O)CCCNC(=O)c7cc(NC(=O)c8cc(NC(=O)c9cc(NC(=O)CCNC(=O)c%10cc(NC(=O)c%11cc(N=C(N(C)C)N(C)C)cn%11C)cn%10C)cn9C)cn8C)cn7C)cn6C)cn5C)cn4C)cn3C)cn2C)cn1C [NV1083, TMG-PyPyβPyPyPy-γ-PyPyβPyPyPyPyβ-Dp•2TFA]	2410	929	3080
CN(CCCN)CCCNC(=O)CCNC(=O)c1cc(NC(=O)c2cc(NC(=O)c3cc(NC(=O)c4cc(NC(=O)CCNC(=O)c5cc(NC(=O)c6cc(NC(=O)CCCNC(=O)c7cc(NC(=O)c8cc(NC(=O)c9cc(NC(=O)CCNC(=O)c%10cc(NC(=O)c%11cc(N=C(N(C)C)N(C)C)cn%11C)cn%10C)cn9C)cn8C)cn7C)cn6C)cn5C)cn4C)cn3C)cn2C)cn1C [NV1084, TMG-PyPyβPyPyPy-γ-PyPyβPyPyPyPyβ-Ta•3TFA]	1910	1040	7320
CN(CCCN)CCCNC(=O)CCNC(=O)c1cc(NC(=O)c2cc(NC(=O)c3cc(NC(=O)CCNC(=O)c4cc(NC(=O)c5cc(NC(=O)c6cc(NC(=O)CCNC(=O)c7cc(NC(=O)c8cc(NC(=O)CCCNC(=O)c9cc(NC(=O)c%10cc(NC(=O)CCNC(=O)c%11nc(NC(=O)c%12cc(NC(=O)c%13cc(NC(=O)CCNC(=O)c%14cc(NC(=O)c%15cc(N=C(N(C)C)N(C)C)cn%15C)cn%14C)cn%13C)cn%12C)cn%11C)cn%10C)cn9C)cn8C)cn7C)cn6C)cn5C)cn4C)cn3C)cn2C)cn1C [NV1085, TMG-PyPyβPyPyImβPyPy-γ-PyPyβPyPyPyβPyPyPyβ-Ta•4TFA]	29	41	32
